Experimental data published in patent US6825172B2, “3-descladinosyl-6-O-carbamoyl and 6-O-carbonoyl macrolide antibacterial agents” (Janssen Pharmaceutica, NV, priority 2002, dated 2004).
In brackets after ≈: the same amount, converted by molar mass. Read-outs that look alike come from different tables or passages of the source. One block for each compound: values may come before it.

Assays:
Experiment in all cases: MIC, microdilution broth method (NCCLS)
Format in all cases: cell-based
[1] = system: H. influenzae ATCC49247; conditions: Haemophilus influenzae, read-out: MIC Values, E: H. influenzae ATCC49247
How it was run: (§1)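 NCCLS M7-A4 broth microdilution: two-fold drug dilutions in cation-adjusted Mueller-Hinton broth, inoculum approximately 5×10^4 CFU/well. Trays incubated at 35 °C for 16-20 hours. MIC read by comparing growth to compound-free growth controls.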

[2] = system: S. aureus ATCC29213; conditions: Staphylococcus aureus, read-out: MIC Values, B: S. aureus ATCC29213
How it was run: as §1

[3] = system: S. pneumoniae ATCC49619; conditions: Streptococcus pneumoniae, read-out: MIC Values, D: S. pneumoniae ATCC49619
How it was run: as §1

[4] = system: E. coli OC2605; conditions: Escherichia coli
How it was run: as §1

[5] = system: E. faecalis ATCC29212; conditions: Enterococcus faecalis, read-out: MIC Values, C: E. faecalis ATCC29212
How it was run: as §1

[6] = Table 1, 6-Carbamoyl-3-Acyl Macrolide Derivatives
[7] = Table 1, 6-Carbamoyl-3-Acyl Macrolide Derivatives, read-out: MIC Values, A: E. coli OC2605
[8] = Table 2, 3,6-Dicarbamoyl Macrolide Derivatives
[9] = Table 2, 3,6-Dicarbamoyl Macrolide Derivatives, read-out: MIC Values, A: E. coil OC2605

Compound: CC[C@H]1OC(=O)[C@H](C)[C@@H](OC(=O)Cc2cccnc2)[C@H](C)[C@@H](O[C@@H]2O[C@H](C)C[C@H](N(C)C)[C@H]2O)[C@](C)(OC(=O)NC/C=C/c2cnc(C3CC3)nc2)C[C@@H](C)C(=O)[C@H](C)[C@H]2NC(=O)O[C@@]21C [Compound 39]
MIC [1, 6]: 2 µg/mL (≈ 2.17 µM)
MIC [2, 6]: 1 µg/mL (≈ 1.09 µM)
MIC [3, 6]: 0.06 µg/mL (≈ 0.0651 µM)
MIC [4, 7]: 16 µg/mL (≈ 17.4 µM)
MIC [5, 6]: 0.5 µg/mL (≈ 0.543 µM)

Compound: CC[C@H]1OC(=O)[C@H](C)[C@@H](OC(=O)Cc2cccnc2)[C@H](C)[C@@H](O[C@@H]2O[C@H](C)C[C@H](N(C)C)[C@H]2O)[C@](C)(OC(=O)NC/C=C/c2cncnc2)C[C@@H](C)C(=O)[C@H](C)[C@H]2NC(=O)O[C@@]21C [Compound 40]
MIC [1, 6]: 2 µg/mL (≈ 2.27 µM)
MIC [2, 6]: 1 µg/mL (≈ 1.14 µM)
MIC [3, 6]: 0.12 µg/mL (≈ 0.136 µM)
MIC [4, 7]: > 16 µg/mL
MIC [5, 6]: 0.5 µg/mL (≈ 0.568 µM)

Compound: CC[C@H]1OC(=O)[C@H](C)[C@@H](OC(=O)Cc2cccnc2)[C@H](C)[C@@H](O[C@@H]2O[C@H](C)C[C@H](N(C)C)[C@H]2O)[C@](C)(OC(=O)NC/C=C/c2cnc(C(C)C)nc2)C[C@@H](C)C(=O)[C@H](C)[C@H]2NC(=O)O[C@@]21C [Compound 41]
MIC [1, 6]: 4 µg/mL (≈ 4.33 µM)
MIC [2, 6]: 1 µg/mL (≈ 1.08 µM)
MIC [3, 6]: 0.12 µg/mL (≈ 0.13 µM)
MIC [4, 7]: > 16 µg/mL
MIC [5, 6]: 0.5 µg/mL (≈ 0.542 µM)

Compound: CC[C@H]1OC(=O)[C@H](C)[C@@H](OC(=O)/C(=N/OC)c2cccnc2)[C@H](C)[C@@H](O[C@@H]2O[C@H](C)C[C@H](N(C)C)[C@H]2O)[C@](C)(OC(=O)NC/C=C/c2ccc(-c3ncccn3)cc2)C[C@@H](C)C(=O)[C@H](C)[C@H]2NC(=O)O[C@@]21C [Compound 43]
MIC [1, 6]: 8 µg/mL (≈ 8 µM)
MIC [2, 6]: 1 µg/mL (≈ 1 µM)
MIC [3, 6]: 0.12 µg/mL (≈ 0.12 µM)
MIC [4, 7]: 16 µg/mL (≈ 16 µM)
MIC [5, 6]: 1 µg/mL (≈ 1 µM)

Compound: CC[C@H]1OC(=O)[C@H](C)[C@@H](OC(=O)Nc2ccc3ccccc3c2)[C@H](C)[C@@H](O[C@@H]2O[C@H](C)C[C@H](N(C)C)[C@H]2O)[C@](C)(OC(=O)NC/C=C/c2ccc(-c3ncccn3)cc2)C[C@@H](C)C(=O)[C@H](C)[C@H]2NC(=O)O[C@@]21C [Compound 53]
MIC [1, 8]: > 16 µg/mL
MIC [2, 8]: 2 µg/mL (≈ 1.99 µM)
MIC [3, 8]: 0.25 µg/mL (≈ 0.248 µM)
MIC [4, 9]: > 16 µg/mL
MIC [5, 8]: 1 µg/mL (≈ 0.993 µM)

Compound: CC[C@H]1OC(=O)[C@H](C)[C@@H](OC(=O)Nc2ccc(Cl)c(Cl)c2)[C@H](C)[C@@H](O[C@@H]2O[C@H](C)C[C@H](N(C)C)[C@H]2O)[C@](C)(OC(=O)NC/C=C/c2ccc(-c3ncccn3)cc2)C[C@@H](C)C(=O)[C@H](C)[C@H]2NC(=O)O[C@@]21C [Compound 54]
MIC [1, 8]: 16 µg/mL (≈ 15.6 µM)
MIC [2, 8]: 2 µg/mL (≈ 1.95 µM)
MIC [3, 8]: 0.5 µg/mL (≈ 0.487 µM)
MIC [4, 9]: > 16 µg/mL
MIC [5, 8]: 2 µg/mL (≈ 1.95 µM)

Compound: CC[C@H]1OC(=O)[C@H](C)[C@@H](OC(=O)N(CC)Cc2cccnc2)[C@H](C)[C@@H](O[C@@H]2O[C@H](C)C[C@H](N(C)C)[C@H]2O)[C@](C)(OC(=O)NC/C=C/c2ccc(-c3ncccn3)cc2)C[C@@H](C)C(=O)[C@H](C)[C@H]2NC(=O)O[C@@]21C [Compound 61]
MIC [1, 8]: 8 µg/mL (≈ 8 µM)
MIC [2, 8]: 1 µg/mL (≈ 1 µM)
MIC [3, 8]: 0.06 µg/mL (≈ 0.06 µM)
MIC [4, 9]: > 16 µg/mL
MIC [5, 8]: 0.5 µg/mL (≈ 0.5 µM)

Compound: CC[C@H]1OC(=O)[C@H](C)[C@@H](OC(=O)N2CCCC2)[C@H](C)[C@@H](O[C@@H]2O[C@H](C)C[C@H](N(C)C)[C@H]2O)[C@](C)(OC(=O)NC/C=C/c2ccc(-c3ncccn3)cc2)C[C@@H](C)C(=O)[C@H](C)[C@H]2NC(=O)O[C@@]21C [Compound 62]
MIC [1, 8]: 4 µg/mL (≈ 4.28 µM)
MIC [2, 8]: 0.5 µg/mL (≈ 0.535 µM)
MIC [3, 8]: 0.06 µg/mL (≈ 0.0642 µM)
MIC [4, 9]: > 16 µg/mL
MIC [5, 8]: 0.5 µg/mL (≈ 0.535 µM)

Second part, the compound after the results:

MIC [1, 8]: 4 µg/mL (≈ 4.05 µM)
MIC [2, 8]: 1 µg/mL (≈ 1.01 µM)
MIC [3, 8]: 0.12 µg/mL (≈ 0.121 µM)
MIC [4, 9]: > 16 µg/mL
MIC [5, 8]: 0.5 µg/mL (≈ 0.506 µM)
Compound: CC[C@H]1OC(=O)[C@H](C)[C@@H](OC(=O)Nc2ccc(OC)nc2)[C@H](C)[C@@H](O[C@@H]2O[C@H](C)C[C@H](N(C)C)[C@H]2O)[C@](C)(OC(=O)NC/C=C/c2ccc(-c3ncccn3)cc2)C[C@@H](C)C(=O)[C@H](C)[C@H]2NC(=O)O[C@@]21C [Compound 50]

MIC [1, 8]: 2 µg/mL (≈ 2.08 µM)
MIC [2, 8]: 1 µg/mL (≈ 1.04 µM)
MIC [3, 8]: 0.12 µg/mL (≈ 0.125 µM)
MIC [4, 9]: > 16 µg/mL
MIC [5, 8]: 0.5 µg/mL (≈ 0.519 µM)
Compound: CC[C@H]1OC(=O)[C@H](C)[C@@H](OC(=O)NC2CCCCC2)[C@H](C)[C@@H](O[C@@H]2O[C@H](C)C[C@H](N(C)C)[C@H]2O)[C@](C)(OC(=O)NC/C=C/c2ccc(-c3ncccn3)cc2)C[C@@H](C)C(=O)[C@H](C)[C@H]2NC(=O)O[C@@]21C [Compound 51]

MIC [1, 8]: 4 µg/mL (≈ 4.1 µM)
MIC [2, 8]: 1 µg/mL (≈ 1.03 µM)
MIC [3, 8]: 0.12 µg/mL (≈ 0.123 µM)
MIC [4, 9]: > 16 µg/mL
MIC [5, 8]: 1 µg/mL (≈ 1.03 µM)
Compound: CC[C@H]1OC(=O)[C@H](C)[C@@H](OC(=O)Nc2ccc(F)cc2)[C@H](C)[C@@H](O[C@@H]2O[C@H](C)C[C@H](N(C)C)[C@H]2O)[C@](C)(OC(=O)NC/C=C/c2ccc(-c3ncccn3)cc2)C[C@@H](C)C(=O)[C@H](C)[C@H]2NC(=O)O[C@@]21C [Compound 52]

MIC [1, 8]: 4 µg/mL (≈ 4.4 µM)
MIC [2, 8]: 0.5 µg/mL (≈ 0.55 µM)
MIC [3, 8]: 0.03 µg/mL (≈ 0.033 µM)
MIC [4, 9]: 16 µg/mL (≈ 17.6 µM)
MIC [5, 8]: 0.25 µg/mL (≈ 0.275 µM)
Compound: CC[C@H]1OC(=O)[C@H](C)[C@@H](OC(=O)N(C)C)[C@H](C)[C@@H](O[C@@H]2O[C@H](C)C[C@H](N(C)C)[C@H]2O)[C@](C)(OC(=O)NC/C=C/c2ccc(-c3ncccn3)cc2)C[C@@H](C)C(=O)[C@H](C)[C@H]2NC(=O)O[C@@]21C [Compound 55]

MIC [1, 8]: 4 µg/mL (≈ 4.27 µM)
MIC [2, 8]: 0.5 µg/mL (≈ 0.534 µM)
MIC [3, 8]: 0.06 µg/mL (≈ 0.064 µM)
MIC [4, 9]: 16 µg/mL (≈ 17.1 µM)
MIC [5, 8]: 0.5 µg/mL (≈ 0.534 µM)
Compound: CC[C@H]1OC(=O)[C@H](C)[C@@H](OC(=O)N(CC)CC)[C@H](C)[C@@H](O[C@@H]2O[C@H](C)C[C@H](N(C)C)[C@H]2O)[C@](C)(OC(=O)NC/C=C/c2ccc(-c3ncccn3)cc2)C[C@@H](C)C(=O)[C@H](C)[C@H]2NC(=O)O[C@@]21C [Compound 56]

MIC [1, 8]: 4 µg/mL (≈ 4.27 µM)
MIC [2, 8]: 0.5 µg/mL (≈ 0.534 µM)
MIC [3, 8]: 0.06 µg/mL (≈ 0.064 µM)
MIC [4, 9]: 16 µg/mL (≈ 17.1 µM)
MIC [5, 8]: 0.5 µg/mL (≈ 0.534 µM)
Compound: CC[C@H]1OC(=O)[C@H](C)[C@@H](OC(=O)N(C)C(C)C)[C@H](C)[C@@H](O[C@@H]2O[C@H](C)C[C@H](N(C)C)[C@H]2O)[C@](C)(OC(=O)NC/C=C/c2ccc(-c3ncccn3)cc2)C[C@@H](C)C(=O)[C@H](C)[C@H]2NC(=O)O[C@@]21C [Compound 57]

MIC [1, 8]: 2 µg/mL (≈ 2.03 µM)
MIC [2, 8]: 0.25 µg/mL (≈ 0.254 µM)
MIC [3, 8]: 0.03 µg/mL (≈ 0.0304 µM)
MIC [4, 9]: > 16 µg/mL
MIC [5, 8]: 0.25 µg/mL (≈ 0.254 µM)
Compound: CC[C@H]1OC(=O)[C@H](C)[C@@H](OC(=O)N(C)Cc2cccnc2)[C@H](C)[C@@H](O[C@@H]2O[C@H](C)C[C@H](N(C)C)[C@H]2O)[C@](C)(OC(=O)NC/C=C/c2ccc(-c3ncccn3)cc2)C[C@@H](C)C(=O)[C@H](C)[C@H]2NC(=O)O[C@@]21C [Compound 58]

MIC [1, 8]: 4 µg/mL (≈ 4.4 µM)
MIC [2, 8]: 0.5 µg/mL (≈ 0.549 µM)
MIC [3, 8]: 0.06 µg/mL (≈ 0.0659 µM)
MIC [4, 9]: 16 µg/mL (≈ 17.6 µM)
MIC [5, 8]: 0.25 µg/mL (≈ 0.275 µM)
Compound: CC[C@H]1OC(=O)[C@H](C)[C@@H](OC(=O)N(CC)CC)[C@H](C)[C@@H](O[C@@H]2O[C@H](C)C[C@H](N(C)C)[C@H]2O)[C@](C)(OC(=O)NC/C=C/c2cnc3ccccc3c2)C[C@@H](C)C(=O)[C@H](C)[C@H]2NC(=O)O[C@@]21C [Compound 59]

MIC [1, 8]: 4 µg/mL (≈ 4.11 µM)
MIC [2, 8]: 1 µg/mL (≈ 1.03 µM)
MIC [3, 8]: 0.06 µg/mL (≈ 0.0617 µM)
MIC [4, 9]: > 16 µg/mL
MIC [5, 8]: 0.5 µg/mL (≈ 0.514 µM)
Compound: CC[C@H]1OC(=O)[C@H](C)[C@@H](OC(=O)N(C)c2cccnc2)[C@H](C)[C@@H](O[C@@H]2O[C@H](C)C[C@H](N(C)C)[C@H]2O)[C@](C)(OC(=O)NC/C=C/c2ccc(-c3ncccn3)cc2)C[C@@H](C)C(=O)[C@H](C)[C@H]2NC(=O)O[C@@]21C [Compound 60]
